Measurements: US20260109712A1, “RIFAMYCINS FOR NONTUBERCULOUS MYCOBACTERIA” (priority 2022, published 2026)
≈ marks a conversion by molar mass, not a printed value.

What was measured:
[1] = test system: M. abscessus ATCC 19977; experiment: MIC assay in 96-well plate format, wild-type strain; format: cell-based, Mycobacterium abscessus; conditions: for MICWT: Table 10; for MIC: Table 15, heterocyclic aromatic carbamates, read-out: WT Mab MIC
How it was run: (§1)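 Two-fold, ten-point dilutions in 7H9 with 2% DMSO; mid-log culture diluted to OD600=0.1 (1×10^7 CFU/mL). Incubated 3 days at 37 °C, shaking 110 RPM; growth = Day 3 minus Day 0 OD600, expressed as percentage of drug-free growth and plotted against concentration. Two biological replicates.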

[2] = Plasma protein binding assay (rapid equilibrium dialysis); format: in vitro ADME
Method: DMSO stocks were spiked into plasma to a concentration of 10,000 ng/mL. 200 μL of spiked plasma was pipetted into the sample chamber of the rapid equilibrium dialysis (RED) cartridge. 350 μL of PBS was added to the adjacent cartridge. The plate containing the RED was sealed and incubated at 37° C. on the thermomixer at 300 RPM for 4 h. After incubation, 50 μL aliquots of plasma were removed and added to 50 μL of blank plasma in a deep well plate (1:1). Similarly, 50 μL aliquots of PBS were removed and added to 50 μL of blank plasma. This created an identical matrix between buffer and non-buffer samples. Samples were processed and quantified as specified in the LC-MS/MS analytical method.

[3] = test system: Δarr M. abscessus; experiment: MIC assay, isogenic arr-deleted strain; format: cell-based, Mycobacterium abscessus; conditions: Table 10
How it was run: as §1

[4] = Mouse pharmacokinetics studies; format: in vivo, CD-1 mice; conditions: for AUCp.o.: po; for C-25 deacylation i.v. / C-25 deacylation p.o.: AUC25-O-desacetyl RFB/AUCcompound × 100%, n.d. = undetectable
Method: Blood was captured in CB300 blood collection tubes containing K2EDTA and stored on ice. Plasma was recovered after centrifugation and stored at −80° C. until analyzed by high pressure liquid chromatography coupled to tandem mass spectrometry (LC-MS/MS). Pharmacokinetic parameters were calculated using non-compartmental pharmacokinetic analysis. […] Extracts were vortexed for 5 minutes and centrifuged at 4000 RPM for 5 minutes. 75 μL of supernatant was transferred for LC-MS/MS analysis and diluted with 75 μL of Milli-Q deionized water. Rifabutin was purchased from Carbosynth. C25-desacetyl rifabutin and rifabutin-d7 were purchased from Toronto Research Chemical. Verapamil was purchased from Sigma-Aldrich. […] Multiple-reaction monitoring of parent/daughter transitions in electrospray positive-ionization mode was used to quantify all analytes. […] Data processing was performed using Analyst software (version 1.6.2; Applied Biosystems Sciex).

[5] = test system: Mycobacterium abscessus; experiment: MIC against Mycobacterium abscessus (strain not given); format: cell-based; conditions: Table 13; read-out: Mab MIC
[6] = p.o. doses of 10 mg/kg, Table 12

## CO[C@H]1/C=C/O[C@@]2(C)Oc3c(C)c(O)c4c(c3C2=O)C2=NC3(CCN(CC(C)C)CC3)NC2=C(NC(=O)/C(C)=C/C=C/[C@H](C)[C@H](O)[C@@H](C)[C@@H](O)[C@@H](C)[C@H](OC(=O)Nc2ccccc2)[C@@H]1C)C4=O [UMN14]
[1]
  MICWT: 0.027 µM
  MIC: 0.027 µM (≈ 0.025 µg/mL)
[2]
  ƒu: 0.1%
[2]; plasma
  plasma unbound fraction: 0.08%
[3]
  MICΔorr: 0.042 µM
[4]; Table 18
  ƒAUC/MIC: 0.8
[4]; mouse, in vivo
  CL: 2.40 mL/min/kg
  F: 38%
  Vd: 1.93 L/kg
  AUCp.o.: 25625 ng·h/mL

## CO[C@H]1/C=C/O[C@@]2(C)Oc3c(C)c(O)c4c(c3C2=O)C2=NC3(CCN(CC(C)C)CC3)NC2=C(NC(=O)/C(C)=C/C=C/[C@H](C)[C@H](O)[C@@H](C)[C@@H](O)[C@@H](C)[C@H](OC(=O)N2CCN(C(C)(C)C)CC2)[C@@H]1C)C4=O [UMN63]
[1]
  MICWT: 0.077 µM
[2]; Table 10
  plasma unbound fraction: 3.60%
[3]
  MICΔorr: 0.043 µM

## CO[C@H]1/C=C/O[C@@]2(C)Oc3c(C)c(O)c4c(c3C2=O)C2=NC3(CCN(CC(C)C)CC3)NC2=C(NC(=O)/C(C)=C/C=C/[C@H](C)[C@H](O)[C@@H](C)[C@@H](O)[C@@H](C)[C@H](OC(=O)Nc2cccnn2)[C@@H]1C)C4=O [UMN64]
[1]
  MICWT: 0.032 µM
[2]; Table 10
  plasma unbound fraction: 4.15%
[3]
  MICΔorr: 0.034 µM

## CO[C@H]1/C=C/O[C@@]2(C)Oc3c(C)c(O)c4c(c3C2=O)C2=NC3(CCN(CC(C)C)CC3)NC2=C(NC(=O)/C(C)=C/C=C/[C@H](C)[C@H](O)[C@@H](C)[C@@H](O)[C@@H](C)[C@H](OC(=O)Nc2cccnc2)[C@@H]1C)C4=O [UMN67]
[1]
  MICWT: 0.025 µM
[2]; Table 10
  plasma unbound fraction: 1.75%
[3]
  MICΔorr: 0.025 µM

## COC1C=COC2(C)Oc3c(C)c(O)c4c(c3C2=O)C2=NC3(CCN(CC(C)C)CC3)NC2=C(NC(=O)C(C)=CC=CC(C)C(O)C(C)C(O)C(C)C(OC(=O)N2CCOC(C)C2)C1C)C4=O (centres unmarked) [UMN68]
[1]
  MICWT: 0.061 µM
[2]; Table 10
  plasma unbound fraction: 2.40%
[3]
  MICΔorr: 0.033 µM

## CO[C@H]1/C=C/O[C@@]2(C)Oc3c(C)c(O)c4c(c3C2=O)C2=NC3(CCN(CC(C)C)CC3)NC2=C(NC(=O)/C(C)=C/C=C/[C@H](C)[C@H](O)[C@@H](C)[C@@H](O)[C@@H](C)[C@H](OC(=O)Nc2nncs2)[C@@H]1C)C4=O [UMN69]
[1]
  MICWT: 0.026 µM
  MIC: 0.026 µM (≈ 0.0242 µg/mL)
[2]
  ƒu: 5.3%
[2]; plasma
  plasma unbound fraction: 5.30%
[3]
  MICΔorr: 0.027 µM
[4]; Table 18
  ƒAUC/MIC: 26.5
[4]; mouse, in vivo
  CL: 6.19 mL/min/kg
  F: 45%
  Vd: 1.14 L/kg
  AUCp.o.: 12103 ng·h/mL

## COC1C=COC2(C)Oc3c(C)c(O)c4c(c3C2=O)C2=NC3(CCN(CC(C)C)CC3)NC2=C(NC(=O)C(C)=CC=CC(C)C(O)C(C)C(O)C(C)C(OC(=O)N2CCOC(C)C2)C1C)C4=O (centres unmarked) [UMN70]
[1]
  MICWT: 0.08 µM
[2]; Table 10
  plasma unbound fraction: 0.56%
[3]
  MICΔorr: 0.026 µM

## CO[C@H]1/C=C/O[C@@]2(C)Oc3c(C)c(O)c4c(c3C2=O)C2=NC3(CCN(CC(C)C)CC3)NC2=C(NC(=O)/C(C)=C/C=C/[C@H](C)[C@H](O)[C@@H](C)[C@@H](O)[C@@H](C)[C@H](OC(=O)N2CCOC(C)(C)C2)[C@@H]1C)C4=O [UMN71]
[1]
  MICWT: 0.076 µM
[2]; Table 10
  plasma unbound fraction: 0.39%
[3]
  MICΔorr: 0.032 µM

## CCOC(=O)C1CN(C(=O)O[C@H]2[C@H](C)[C@H](O)[C@H](C)[C@@H](O)[C@@H](C)/C=C/C=C(\C)C(=O)NC3=C4NC5(CCN(CC(C)C)CC5)N=C4c4c(c(O)c(C)c5c4C(=O)[C@@](C)(O/C=C/[C@H](OC)[C@H]2C)O5)C3=O)CCO1 (some centres unmarked) [UMN72]
[1]
  MICWT: 0.082 µM
[2]; Table 10
  plasma unbound fraction: 0.75%
[3]
  MICΔorr: 0.040 µM

## CCN1CCN(C(=O)O[C@H]2[C@H](C)[C@H](O)[C@H](C)[C@@H](O)[C@@H](C)/C=C/C=C(\C)C(=O)NC3=C4NC5(CCN(CC(C)C)CC5)N=C4c4c(c(O)c(C)c5c4C(=O)[C@@](C)(O/C=C/[C@H](OC)[C@H]2C)O5)C3=O)CC1 [UMN73]
[1]
  MICWT: 0.1 µM
[2]; Table 10
  plasma unbound fraction: 0.65%
[3]
  MICΔorr: 0.052 µM

## CO[C@H]1/C=C/O[C@@]2(C)Oc3c(C)c(O)c4c(c3C2=O)C2=NC3(CCN(CC(C)C)CC3)NC2=C(NC(=O)/C(C)=C/C=C/[C@H](C)[C@H](O)[C@@H](C)[C@@H](O)[C@@H](C)[C@H](OC(=O)NCc2cn(Cc3ccccc3)nn2)[C@@H]1C)C4=O [UMN85]
[1]
  MICWT: 0.027 µM
[2]; Table 10
  plasma unbound fraction: 0.30%
[3]
  MICΔorr: 0.025 µM

## CO[C@H]1/C=C/O[C@@]2(C)Oc3c(C)c(O)c4c(c3C2=O)C2=NC3(CCN(CC(C)C)CC3)NC2=C(NC(=O)/C(C)=C/C=C/[C@H](C)[C@H](O)[C@@H](C)[C@@H](O)[C@@H](C)[C@H](OC(=O)c2ncccn2)[C@@H]1C)C4=O [UMN92]
[5]
  MIC: 0.057 µM (≈ 0.0519 µg/mL)
[2]
  ƒu: 9.8%

## CO[C@H]1/C=C/O[C@@]2(C)Oc3c(C)c(O)c4c(c3C2=O)C2=NC3(CCN(CC(C)C)CC3)NC2=C(NC(=O)/C(C)=C/C=C/[C@H](C)[C@H](O)[C@@H](C)[C@@H](O)[C@@H](C)[C@H](OC(=O)c2cncs2)[C@@H]1C)C4=O [UMN93]
[5]
  MIC: 0.057 µM (≈ 0.0522 µg/mL)
[2]
  ƒu: 1.6%

## CO[C@H]1/C=C/O[C@@]2(C)Oc3c(C)c(O)c4c(c3C2=O)C2=NC3(CCN(CC(C)C)CC3)NC2=C(NC(=O)/C(C)=C/C=C/[C@H](C)[C@H](O)[C@@H](C)[C@@H](O)[C@@H](C)[C@H](OC(=O)Nc2ccncc2)[C@@H]1C)C4=O [UMN105]
[1]
  MIC: 0.025 µM (≈ 0.0231 µg/mL)
[2]
  ƒu: 2.0%
[4]; mouse, in vivo
  CL: 7.57 mL/min/kg
  F: 63%
  Vd: 3.78 L/kg
  ƒAUC/MIC: 9.4
  AUCp.o.: 14210 ng·h/mL

## CO[C@H]1/C=C/O[C@@]2(C)Oc3c(C)c(O)c4c(c3C2=O)C2=NC3(CCN(CC(C)C)CC3)NC2=C(NC(=O)/C(C)=C/C=C/[C@H](C)[C@H](O)[C@@H](C)[C@@H](O)[C@@H](C)[C@H](OC(=O)c2cccnn2)[C@@H]1C)C4=O [UMN111]
[5]
  MIC: 0.051 µM (≈ 0.0465 µg/mL)
[2]
  ƒu: 12.7%

## CO[C@H]1/C=C/O[C@@]2(C)Oc3c(C)c(O)c4c(c3C2=O)C2=NC3(CCN(CC(C)C)CC3)NC2=C(NC(=O)/C(C)=C/C=C/[C@H](C)[C@H](O)[C@@H](C)[C@@H](O)[C@@H](C)[C@H](OC(=O)c2ccccc2)[C@@H]1C)C4=O [drawing 217]
[2]; Table 12
  plasma unbound fraction: 0.03%
[4]
  C-25 deacylation i.v.: 0.03%
  C-25 deacylation p.o.: 0.008%
[4]; Table 12
  CL: 2.4 mL/min/kg
  Vd: 2.9 L/kg
  t1/2: 13.8 h
[4]; [6]
  ƒAUC/MIC: 0.08

## CO[C@H]1/C=C/O[C@@]2(C)Oc3c(C)c(O)c4c(c3C2=O)C2=NC3(CCN(CC(C)C)CC3)NC2=C(NC(=O)/C(C)=C/C=C/[C@H](C)[C@H](O)[C@@H](C)[C@@H](O)[C@@H](C)[C@H](OC(=O)Nc2ccccc2)[C@@H]1C)C4=O [drawing 220]
[2]; Table 12
  plasma unbound fraction: 0.0008%
[4]
  C-25 deacylation i.v.: 0.08%
  C-25 deacylation p.o.: 0.001%
[4]; Table 12
  CL: 2.4 mL/min/kg
  Vd: 1.9 L/kg
  t1/2: 9.3 h
[4]; [6]
  ƒAUC/MIC: 0.43

## CO[C@H]1/C=C/O[C@@]2(C)Oc3c(C)c(O)c4c(c3C2=O)C2=NC3(CCN(CC(C)C)CC3)NC2=C(NC(=O)/C(C)=C/C=C/[C@H](C)[C@H](O)[C@@H](C)[C@@H](O)[C@@H](C)[C@H](OC(=O)c2cccnc2)[C@@H]1C)C4=O [drawing 222]
[4]; Table 12
  CL: 3.0 mL/min/kg
  Vd: 1.6 L/kg
[4]; [6]
  ƒAUC/MIC: 28.2
